Like-named read-outs stand apart in the source and are kept apart here.
How the values were obtained:
[1] = target: T1, iNOS (Homo sapiens, UniProt P35228); assay: abcam NOS Inhibitor Screening Kit, IC50 (fluorescence); assay type: biochemical; parameters: IC50; IC50; conditions: abcam NOS Inhibitor Screening Kit
Experimental: (§1) The IC50 of some compounds of the invention was determined using the abcam NOS Inhibitor Screening Kit. The procedure includes the following steps: (1) Dissolved a test compound to 10 mM in DMSO; (2) Diluted the test compound to 1 mM in NOS Assay Buffer; (3) Diluted 1 mM of the test compound stocks to 200 μM, 50 μM, 12.5 μM, 3.125 μM, 0.781 μM, and 0.195 μM in NOS Assay Buffer; (4) Diluted 1 mM DPI Control to 50.0 μM, 12.5 μM, 3.125 μM, 0.781 μM, 0.195 μM, and 0.0488 μM in NOS Assay Buffer; (5) Diluted NOS enzyme with 400 μL of NOS Assay Buffer; (6) Combined Diluted NOS Enzyme with 1.6 mL of NOS Assay buffer then transferred 20 μL of enzyme solution to all wells of 96-well Fluorescence plate except background wells. Added 20 μL of NOS Assay buffer to background wells. (7) Transferred 10 uL of each test compound dilution to the enzyme buffer mix according to the plate map (see addendum for plate map and raw data values). (8) Incubated 15 minutes at room temperature. (9) Added 11 μL of NOS reaction mix (according to manufacturer's protocol) to each well, mixed, and incubated at 37° C. for 1 hour. (10) Added 110 μL of NOS Assay Buffer to each well followed by 5 μL of Enhancer to each well, mixed, and incubated 10 minutes at room temperature; (11) Added 10 μL of Probe to each well, mixed, and incubated 10 minutes at room temperature; and (12) Added 5 μL of NaOH to each well, mixed, and incubated 10 minutes at room temperature. Measure Fluorescence at 360 nm excitation/450 nm emission.

[2] = target: T1, iNOS; assay: as above; assay type: biochemical; parameters: Fold (GT-xxxx)/AZ 6b; conditions: ratio of IC50 to AZ 6b IC50 (0.0488 μM)
Experimental: as §1

[3] = system: rats; conditions: cited from earlier work
[4] = target: T1, iNOS; conditions: in words; cited from earlier work
[5] = system: mice; conditions: cited from earlier work
[6] = target: T1, iNOS; assay: abcam NOS Inhibitor Screening Kit, IC50 (fluorescence); assay type: biochemical; parameters: IC50
Experimental: as §1, with “(10) Added 110 μL of NOS Assay Buffer to each well followed by 5 μL of Enhancer to each well, mixed, and incubated 10 minutes at room temperature; (11) Added 10 μL of Probe to each well, mixed, and incubated 10 minutes at room temperature; and (12) Added 5 μL of NaOH to each well, mixed, and incubated 10 minutes at room temperature.” left out

T1 sequence (P35228 whole entry): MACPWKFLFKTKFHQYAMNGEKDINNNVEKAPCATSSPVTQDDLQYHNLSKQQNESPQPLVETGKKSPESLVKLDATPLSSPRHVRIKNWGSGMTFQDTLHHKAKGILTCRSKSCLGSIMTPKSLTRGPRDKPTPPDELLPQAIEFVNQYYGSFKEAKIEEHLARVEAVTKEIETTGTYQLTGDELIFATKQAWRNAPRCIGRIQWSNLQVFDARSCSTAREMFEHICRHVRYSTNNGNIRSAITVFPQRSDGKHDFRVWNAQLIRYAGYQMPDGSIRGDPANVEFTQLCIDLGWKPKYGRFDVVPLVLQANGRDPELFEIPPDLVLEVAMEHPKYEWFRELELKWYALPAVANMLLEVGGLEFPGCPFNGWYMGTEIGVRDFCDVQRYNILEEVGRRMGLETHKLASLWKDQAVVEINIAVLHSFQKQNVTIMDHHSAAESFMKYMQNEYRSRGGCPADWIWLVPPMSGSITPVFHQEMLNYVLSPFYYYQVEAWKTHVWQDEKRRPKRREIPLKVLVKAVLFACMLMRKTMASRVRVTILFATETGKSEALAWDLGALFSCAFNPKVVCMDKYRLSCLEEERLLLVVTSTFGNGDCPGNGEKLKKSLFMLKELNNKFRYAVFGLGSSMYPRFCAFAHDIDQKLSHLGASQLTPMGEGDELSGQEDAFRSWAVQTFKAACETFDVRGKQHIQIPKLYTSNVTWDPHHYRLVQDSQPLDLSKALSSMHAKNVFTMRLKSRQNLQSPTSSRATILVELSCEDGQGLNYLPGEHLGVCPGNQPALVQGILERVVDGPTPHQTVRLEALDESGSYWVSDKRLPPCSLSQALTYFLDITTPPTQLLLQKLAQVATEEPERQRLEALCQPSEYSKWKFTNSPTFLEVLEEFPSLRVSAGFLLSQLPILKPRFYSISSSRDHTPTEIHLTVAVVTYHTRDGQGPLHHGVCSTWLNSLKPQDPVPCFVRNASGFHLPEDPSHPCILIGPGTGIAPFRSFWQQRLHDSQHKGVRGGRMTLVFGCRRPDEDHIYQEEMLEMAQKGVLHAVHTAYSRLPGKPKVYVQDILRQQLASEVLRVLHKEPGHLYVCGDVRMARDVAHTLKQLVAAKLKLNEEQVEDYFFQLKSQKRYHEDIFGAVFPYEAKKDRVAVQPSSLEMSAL

IC50 ([1]; Table C-1) | IC50 ([1]; Table C-2) | Fold (GT-xxxx)/AZ 6b [2] | IC50 [6] | SMILES | acutely toxic at doses as low as [3] | selectivity of inhibition iNOS to eNOS [4] | acutely toxic at doses as low as [5]
438 nM | 438 nM | 8.98 | – | N#Cc1ccc(Cl)cc1C(=O)N(CCNCC1CC1)c1ccccc1 [GT-7019, 5-chloro-2-cyano-N-(2-((cyclopropylmethyl)amino)ethyl)-N-phenyl benzamide] | – | – | –
28.5 nM | 28.5 nM | 0.58 | – | N#Cc1ccc(Cl)cc1OC(CCN)c1ccnc(N)c1 (stereo not shown) [GT-6064, 2-(3-amino-1-(2-aminopyridin-4-yl)propoxy)-4-chlorobenzonitrile] | – | – | –
– | – | – | – | N=C(N)SCCc1ccc(CCSC(=N)N)cc1 [PBIT, S,S′-1,4-phenylene-bis(1,2-ethanediyl)bis-isothiourea] | 10 mg/kg | does not exhibit necessary selectivity | 10 mg/kg
– | – | – | 48.8 nM | N#Cc1ccc(Cl)cc1O[C@H](CCN)c1ccccc1 [AZ 6b, (R)-2-(3-amino-1-phenylpropoxy)-4-chlorobenzonitrile, reference compound] | – | – | –

— patent US12325681B2, “Inhibitors of nitric oxide synthases (NOS), pharmaceutical products thereof, and methods thereof” (Gacter Inc., priority 2022, dated 2025)
